Results on three compounds are retold here after PMC6273715, “Synthesis and Evaluation of New Benzodioxole- Based Thiosemicarbazone Derivatives as Potential Antitumor Agents” (Molecules, 2016).

One series deals with ribonucleotide reductase. Also noted: method as in PMID 21425997, PMID 22655252, PMID 22963201, PMID 19601577, PMID 26335599. The settings on record: both enzyme and cell assays; cited from earlier work.
The test system of series [1] is A549 cells. Nature of the series: Mitochondrial membrane potential (JC-1) flow cytometry, A549. Format: cell-based, human. The settings on record: IC50 dose, 24 h. The method, then:
(§1) During apoptosis, several key events occur in mitochondria including the release of cytochrome c, changes in electron transport, and loss of mitochondrial transmembrane potential (ΔΨm). For this reason, ΔΨm is an important parameter of mitochondrial function in apoptosis.
(§2) The cells were seeded in six-well plates at a density of 10^5 cells/mL, and the IC50 dose of compounds 2, 5 and 10 was added to cells. The cells were incubated in 5% CO2 air-conditioned atmosphere at 37 °C. […] 5,5′,6,6′-Tetrachloro-1,1′,3,3′-tetraethylbenzimidazolylcarbocyanine iodide (JC-1) dye solution (1× assay buffer + JC-1 stock solution) was added to the cells. The stock solution was prepared by dissolving DMSO. Then the samples were incubated at a temperature of 37 °C for 10–15 min. After incubation, the cells were washed twice with an assay buffer and analyzed by BD FACS Aria Cell Sorter Software version 6.1.1 flow cytometry (BD Biosciences). The cells showing mitochondrial membrane potential disruption were determined as a percentage of all cells.
For orientation: In flow cytometry, cells or beads pass a laser one at a time.

The test system of series [2] is A549 cells. Nature of the series: Annexin V-PI flow cytometry of apoptosis, A549. The series is classed as cell-based. Particulars: IC50 dose, 24 h. On the procedure: (§3) Annexin V staining protocol was applied according to the manufacturer’s instructions (BD Pharmingen). The cells were then briefly washed with cold phosphate buffer saline (PBS) and suspended in a binding buffer at a concentration of 1 × 10^6 cells/mL. Then, 100 µL of this solution containing 1 × 10^5 cells was transferred to a 5 mL test tube. After 5 µL of Annexin-V and PI was added, the cells were incubated for 15 min at room temperature in the dark. Then 400 µL of 1x Binding Buffer was added to each tube and the cells were processed for data acquisition, and analyzed on a Becton–Dickinson FACS Aria using […] Version 6.1.1. Software (BD Biosciences, San Jose, CA, USA).

For another series, the system named is SIRT1. As to the kind of experiment: Sirtuin-1 detection by ELISA in C6 glioma cells. Format: cell-based, rat. Particulars: 24 h. (In general: An ELISA detects its analyte on a solid surface through an enzyme-linked reagent.)
Series [3] has as its system C6 cells. Nature of the series: Annexin V-PI flow cytometry of apoptosis, C6. Format: cell-based. Particulars: IC50 dose, 24 h. On the procedure:
as §3

Series [4] concerns C6 cells. Nature of the series: Mitochondrial membrane potential (JC-1) flow cytometry, C6. Format: cell-based, rat. The settings on record: IC50 dose, 24 h. On the procedure: as §1, §2
Series [5] relates to A549 human lung adenocarcinoma cells. As to the kind of experiment: MTT cytotoxicity assay, A549. Format: cell-based. The settings on record: MTT, 24 h, read-out: IC50 A549 Cell Line. The method, then:
(§4) C6 Rat glioma and NIH/3T3 mouse embryonic fibroblast cells were incubated in Dulbecco’s Modified Eagle’s Medium (DMEM) (Sigma, Deisenhofen, Germany) supplemented with 10% fetal calf serum (Gibco, Paisley, UK). A549 Human lung adenocarcinoma cells were incubated in 90% RPMI supplemented with 10% fetal bovine serum (Gibco). […] Exponentially growing cells were plated at 2 × 10^4 cells/mL into 96-well microtiter tissue culture plates (Nunc, Roskilde, Denmark) and incubated for 24 h before the addition of the drugs (the optimum cell number for cytotoxicity assays was determined in preliminary experiments).
(§5) The level of cellular 3-(4,5-dimethylthiazol-2-yl)-2,5-diphenyltetrazolium bromide (MTT) (Sigma) reduction was quantified as previously described in the literature with small modifications. […] At the end of this period, MTT was added to a final concentration of 0.5 mg/mL and the cells were incubated for 4 h at 37 °C. After the medium was removed, the formazan crystals formed by MTT metabolism were solubilized by addition of 200 µL DMSO to each well and absorbance was read at 540 nm with a microtiter plate spectrophotometer (Bio-Tek Plate Reader, Winooski, VT, USA). Every concentration was repeated in three wells.
For orientation: Formazan colour is commonly taken as a measure of viable cells.

The subject of a further series is C6 rat glioma cells. As to the kind of experiment: MTT cytotoxicity assay, C6. Particulars: MTT, 24 h, read-out: IC50 C6 Cell Line. Format: cell-based. On the procedure: as §4, §5
Series [6] concerns C6 cells. Nature of the series: DNA synthesis inhibition (BrdU ELISA), C6. Format: cell-based, rat. The settings on record: C6, compound at its IC50, 24 h. The method, then: (§6) The immunostaining procedure was carried out with specific anti-BrdU antibodies in the S-phase of the cell cycle. DNA synthesis inhibitory effects of all compounds were evaluated for 24 h. A549 and C6 cell lines were incubated with three different concentrations of the compounds that were determined according to their IC50 values. Cisplatin was used as a positive control.
(§7) Analysis of DNA synthesis was measured by a Cell Proliferation ELISA, BrdU (colorimetric) kit (Roche, Mannheim, Germany). This immunostaining procedure is based on measuring the incorporation of bromodeoxyuridine (BrdU) into nuclear DNA in place of thymidine during the S-phase of the cell cycle using specific anti-BrdU antibodies. […] Firstly cells were seeded into 96 well flat-bottomed microtiter plates at a density of 2 × 10^3. […] Microtiter plates were incubated at 37 °C in a 5% CO2/95% air humidified atmosphere for 24 h. Cells were labeled with 10 µL BrdU solution for 2 h and then fixed. Anti-BrdU-POD (100 µL) was added and incubated for 90 min. Finally, wells were washed with BPS and cells were incubated with substrate. Absorbance of the samples was measured with an ELX808-IU Bio-Tek apparatus at 492 nm. All experiments were repeated two times. For each compound dose, dublicate wells were used.

The test system of series [7] is A549 cells. Nature of the series: DNA synthesis inhibition (BrdU ELISA), A549. Format: cell-based, human. Particulars: A549, compound at its IC50, 24 h. On the procedure:
as §6, §7

Another series deals with AChE (Electrophorus electricus, UniProt O42275). Nature of the series: biochemical. Format: biochemical. The settings on record: tested at 5–80 μg/mL.
Chain of AChE (O42275 24-633): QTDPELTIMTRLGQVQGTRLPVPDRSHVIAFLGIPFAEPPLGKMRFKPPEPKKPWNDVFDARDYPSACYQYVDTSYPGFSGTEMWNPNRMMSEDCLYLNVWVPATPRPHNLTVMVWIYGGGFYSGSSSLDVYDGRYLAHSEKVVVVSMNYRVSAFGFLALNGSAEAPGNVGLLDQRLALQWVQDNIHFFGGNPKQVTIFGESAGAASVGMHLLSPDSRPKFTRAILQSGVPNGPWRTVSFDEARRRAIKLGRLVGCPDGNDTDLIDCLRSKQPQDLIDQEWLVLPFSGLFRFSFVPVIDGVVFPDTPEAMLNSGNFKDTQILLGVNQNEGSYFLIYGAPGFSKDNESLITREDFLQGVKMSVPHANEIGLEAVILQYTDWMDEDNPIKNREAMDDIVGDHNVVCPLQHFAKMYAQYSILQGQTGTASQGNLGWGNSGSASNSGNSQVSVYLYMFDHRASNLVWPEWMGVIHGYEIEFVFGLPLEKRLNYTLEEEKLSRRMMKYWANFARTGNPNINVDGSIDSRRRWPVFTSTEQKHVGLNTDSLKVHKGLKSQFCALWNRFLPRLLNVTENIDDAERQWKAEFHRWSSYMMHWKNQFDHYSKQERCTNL
Series [8] concerns NIH/3T3 mouse embryonic fibroblast cells. Nature of the series: MTT cytotoxicity assay, NIH/3T3. Format: cell-based. Particulars: NIH3T3, 24 h, read-out: IC50 NIH/3T3 Cell Line. On the procedure:
C6 Rat glioma and NIH/3T3 mouse embryonic fibroblast cells were incubated in Dulbecco’s Modified Eagle’s Medium (DMEM) (Sigma, Deisenhofen, Germany) supplemented with 10% fetal calf serum (Gibco, Paisley, UK). A549 Human lung adenocarcinoma cells were incubated in 90% RPMI supplemented with 10% fetal bovine serum (Gibco). All media were supplemented with 100 IU/mL penicillin-streptomycin (Gibco) and cells were incubated at 37 °C in a humidified atmosphere of 95% air and 5% CO2. Exponentially growing cells were plated at 2 × 10^4 cells/mL into 96-well microtiter tissue culture plates (Nunc, Roskilde, Denmark) and incubated for 24 h before the addition of the drugs (the optimum cell number for cytotoxicity assays was determined in preliminary experiments). The stock solutions of the compounds were prepared in dimethyl sulfoxide (DMSO; Sigma Aldrich, Poole, UK) and further dilutions were made with fresh culture medium (the concentration of DMSO in the final culture medium was <0.1% which had no effect on the cell viability).
as §5

A further series deals with BuChE (Homo sapiens, UniProt P06276). As to the kind of experiment: BuChE inhibition, modified Ellman's method. Format: biochemical. The settings on record: tested at 5–80 μg/mL.
Chain of BuChE (P06276 29-602): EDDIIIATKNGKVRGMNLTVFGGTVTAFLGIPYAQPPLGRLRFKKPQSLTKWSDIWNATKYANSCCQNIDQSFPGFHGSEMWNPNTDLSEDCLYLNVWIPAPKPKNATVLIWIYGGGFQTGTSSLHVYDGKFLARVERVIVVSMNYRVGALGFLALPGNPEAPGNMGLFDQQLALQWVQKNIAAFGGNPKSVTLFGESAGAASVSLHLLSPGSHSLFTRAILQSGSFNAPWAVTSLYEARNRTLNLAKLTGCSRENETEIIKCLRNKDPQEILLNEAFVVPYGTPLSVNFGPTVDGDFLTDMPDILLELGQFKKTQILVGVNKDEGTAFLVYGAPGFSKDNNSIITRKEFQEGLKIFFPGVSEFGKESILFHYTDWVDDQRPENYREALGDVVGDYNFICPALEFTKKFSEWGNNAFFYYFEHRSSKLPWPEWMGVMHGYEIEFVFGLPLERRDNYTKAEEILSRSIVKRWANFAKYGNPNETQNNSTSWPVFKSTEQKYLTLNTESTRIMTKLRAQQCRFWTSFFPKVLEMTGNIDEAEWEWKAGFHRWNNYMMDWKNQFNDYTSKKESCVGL

Where two headings read alike, the source gives them in different places. Where only a bound is given, the exact number is not on record here.

For the compound `NC(=S)NN=Cc1ncccc1N` [Triapine, 3-aminopyridine-2-carboxaldehyde thiosemicarbazone], in the series on ribonucleotide reductase, the “potency relative to hydroxyurea” value is on record as 1000 times.

For the compound `N.N.[Cl][Pt][Cl]` [Cisplatin, reference compound], in the series on A549 cells [1], the “P2 (%) mitochondrial membrane polarized cells, A549 Cells” value is listed as 41.4%. The “P3 (%) mitochondrial membrane depolarized cells, A549 Cells” value in the series with A549 cells [1] was found to be 54.0%. In addition, the “Early and Late Apoptotic Cells % A549 Cells” value with A549 cells [2] worked out at 32.4%. Besides, the “SIRT1 Concentration” value was determined as 4.53 ± 1.37 ng/mL in the series on SIRT1 (IC50/2 concentration) and 3.32 ± 1.41 ng/mL with SIRT1 (IC50 concentration). Further, in the series on C6 cells [3], the “Early and Late Apoptotic Cells % C6 Cells” value was determined as 16.3%. The “P2 (%) mitochondrial membrane polarized cells, C6 Cells” value in the series on C6 cells [4] was determined as 46.6%. In addition, in the series on C6 cells [4], the “P3 (%) mitochondrial membrane depolarized cells, C6 Cells” value was 48.4%. The IC50 in series [5] is 3 ± 0.88 µM; with C6 rat glioma cells, 6.83 ± 0.28 µM. Moreover, the “DNA synthesis inhibition percent” value with C6 cells [6] is on record as 53.95%; in the series on A549 cells [7] it was 55.73%.

For the compound `O=[N+]([O-])c1ccc(C=NNC(=S)Nc2ccc3c(c2)OCO3)cc1` [Compound 2, 4-(1,3-Benzodioxole-5-yl)-1-(4-nitrobenzylidene)thiosemicarbazide], the “P2 (%) mitochondrial membrane polarized cells, A549 Cells” value in the series with A549 cells [1] is on record as 4.5%. In addition, the “P3 (%) mitochondrial membrane depolarized cells, A549 Cells” value with A549 cells [1] turned out to be 9.8%. Besides, in the series with A549 cells [2], the “Early and Late Apoptotic Cells % A549 Cells” value is 23.7%. For the same compound, the “Viability % A549 Cells” value with A549 cells [2] worked out at 75.2%. Moreover, the IC50 against AChE is more than 232 µM; in series [8], more than 145 µM; against BuChE, more than 213 µM; in series [5] (Homo sapiens, A549) it was 24 ± 3.46 µM; in the series with C6 rat glioma cells (Rattus norvegicus, C6), 23.3 ± 2.08 µM. Also, in the series with C6 cells [3], the “Early and Late Apoptotic Cells % C6 Cells” value amounted to 5.4%. For the same compound, in the series with C6 cells [3], the “Viability % C6 Cells” value came out at 94.5%. For the same compound, the “P2 (%) mitochondrial membrane polarized cells, C6 Cells” value in the series with C6 cells [4] was 44.8%. Also, in the series on C6 cells [4], the “P3 (%) mitochondrial membrane depolarized cells, C6 Cells” value is on record as 21.1%. For the same compound, the “DNA synthesis inhibition percent” value was 63.34% in the series with C6 cells [6] and 59.85% in the series on A549 cells [7].
